# Measured values as given in patent US8518989B2, “Prodrugs of short-chain fatty acids and treatment methods” (Georgia Health Sciences University Research Institute, Inc., priority 2005, dated 2013).
# What was measured:
# rat ATB^0,+ [1] = target: T1, rat ATB^0,+ (Rattus norvegicus, UniProt Q334I2); assay: Inhibition of ATB0,+-mediated 3H-glycine uptake in HRPE cells expressing cloned rat ATB0,+; assay type: cell-based; settings: 5 mM; HRPE cells
# T1 sequence (Q334I2 1-640): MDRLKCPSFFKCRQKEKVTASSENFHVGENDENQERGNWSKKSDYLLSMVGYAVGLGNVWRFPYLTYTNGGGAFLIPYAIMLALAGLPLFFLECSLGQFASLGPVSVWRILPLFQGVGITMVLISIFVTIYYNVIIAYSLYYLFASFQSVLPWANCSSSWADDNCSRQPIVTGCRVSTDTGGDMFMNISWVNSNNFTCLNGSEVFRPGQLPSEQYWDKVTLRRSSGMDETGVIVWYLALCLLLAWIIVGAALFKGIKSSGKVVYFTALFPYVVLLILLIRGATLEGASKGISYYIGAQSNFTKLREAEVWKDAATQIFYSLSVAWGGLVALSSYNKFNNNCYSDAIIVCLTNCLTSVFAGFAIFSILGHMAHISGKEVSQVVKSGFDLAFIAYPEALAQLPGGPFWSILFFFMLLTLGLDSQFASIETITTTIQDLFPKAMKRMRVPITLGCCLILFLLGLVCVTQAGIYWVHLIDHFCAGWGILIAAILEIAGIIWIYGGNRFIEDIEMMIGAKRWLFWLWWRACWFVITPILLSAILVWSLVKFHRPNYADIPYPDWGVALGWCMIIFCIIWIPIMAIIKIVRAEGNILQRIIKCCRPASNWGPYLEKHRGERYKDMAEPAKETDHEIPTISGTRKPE
# rat ATB^0,+ [2] = target: T1, rat ATB^0,+; assay: Substrate-induced inward currents in Xenopus oocytes expressing rat ATB0,+ (voltage clamp); assay type: cell-based; settings: 5 mM; voltage clamp
# Protocol: Experiments with HRPE cells were repeated at least three times with three independent transfections and transport measurements made in duplicate in each experiment. Electrophysiological measurements of substrate-induced currents were repeated at least three times with separate oocytes. The data are presented as means±S.E.M. of these replicates. The kinetic parameters, Michaelis constant (Kt) and maximal velocity (Vmax) were calculated by fitting the ATB^0,+-specific transport data to the Michaelis-Menten equation describing a single saturable transport system. Na^+ and Cl^−-activation kinetics were analyzed by fitting the ATB^0,+-specific transport data to the Hill equation for the determination of K0.5 values for Na^+ and Cl^− (concentration of Na^+ and Cl^− necessary for half-maximal activation) and the Hill coefficient (nH; the number of Na^+ or Cl^− ions involved in the activation process). The kinetics parameters were first determined by non-linear regression methods and subsequently confirmed by linear regression methods using the commercially-available computer program SigmaPlot, version 6.0 (SPSS Inc., Chicago, Ill., US).
# Therefore, it was necessary to determine whether or not the α-carboxyl esters of neutral amino acids are transportable substrates for ATB^0,+. For this purpose, we used the X. laevis oocyte expression system. Cloned rat ATB^0,+ was functionally expressed in oocytes by injection of corresponding cRNA, and the transport of substrates via the transporter was monitored by inward currents when the oocytes were exposed to putative substrates under voltage-clamp conditions.
# human SLC5A8 = target: T2, human SLC5A8 (Homo sapiens, UniProt Q8N695, F251V/V193I); assay: Uptake of radiolabeled short-chain fatty acids in Xenopus oocytes injected with SLC5A8 cRNA; assay type: cell-based; settings: 1 h incubation
# T2 construct: We amplified the coding region of SLC5A8 mRNA by RT-PCR using human intestinal mRNA as the template; expressed in transfected cells; host or cells: Xenopus laevis oocytes, 50 ng capped cRNA from the pGH19 construct
# T2 sequence (Q8N695 1-610 V193I/F251V): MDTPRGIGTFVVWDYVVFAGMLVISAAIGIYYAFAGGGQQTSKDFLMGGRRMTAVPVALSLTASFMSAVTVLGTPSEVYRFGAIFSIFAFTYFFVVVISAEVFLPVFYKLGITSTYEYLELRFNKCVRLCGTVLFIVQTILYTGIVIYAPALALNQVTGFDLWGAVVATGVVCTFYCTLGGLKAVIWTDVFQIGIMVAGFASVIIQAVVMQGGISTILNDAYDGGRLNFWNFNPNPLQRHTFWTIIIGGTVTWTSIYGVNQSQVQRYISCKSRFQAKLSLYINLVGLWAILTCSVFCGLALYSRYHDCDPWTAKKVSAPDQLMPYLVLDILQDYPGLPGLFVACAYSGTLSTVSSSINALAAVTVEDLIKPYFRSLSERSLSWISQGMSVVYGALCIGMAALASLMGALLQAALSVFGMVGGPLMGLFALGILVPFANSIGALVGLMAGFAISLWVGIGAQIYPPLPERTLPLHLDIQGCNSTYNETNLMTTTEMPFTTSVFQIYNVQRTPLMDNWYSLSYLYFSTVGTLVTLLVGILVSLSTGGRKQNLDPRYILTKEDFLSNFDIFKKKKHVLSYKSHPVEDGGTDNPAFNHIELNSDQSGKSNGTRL
# Protocol: The amplified human SLC5A8 cDNA was expressed heterologously in Xenopus oocytes by cRNA injection. Capped cRNA from SLC5A8 cDNA was synthesized using the mMESSAGE mMACHINE kit (Ambion Inc., Austin, Tex.). Mature oocytes (stage 1V or V) from Xenopus laevis were injected with 50 ng cRNA. Uninjected oocytes served as controls. The oocytes were used for uptake and electrophysiological studies 3-6 days after cRNA injection. Uptake of radiolabeled substrates in uninjected and cRNA-injected oocytes was determined as described previously (Fei, Y. J., et al., (1995) Biochemistry 34, 8744-8751).
# Eight oocytes were used for each uptake measurement. Electrophysiological studies were performed by the two-microelectrode voltage clamp method (11. Wang, H., Fei, et al., (2000) Am. J. Physiol. 278:C1019-C1030; Inoue, K, et al. (2004) Biochem. J. 378:949-957).
# Uptake of short-chain fatty acids in uninjected oocytes and in oocytes injected with SLC5A8 cRNA was measured with 1 h incubation. Concentration of substrates (labeled plus unlabeled) varied in the range of 50-500 μM depending on the specific radioactivity of the substrates. Eight oocytes were used for each uptake measurement. Data represent means±SE.
# HDAC = HDAC activity in a cell-free system with MCF7 cell lysate; assay type: biochemical, human
# Protocol: Measurement of HDAC activity in a cell-free system: This was done using a commercially available assay kit (BioVision). MCF7 cell lysate was used as a source of HDAC activity. 50 μg of lysate protein was incubated with various monocarboxylates (1 mM), or trichostatin A (20 μM), and the reaction was initiated by the addition of HDAC substrate. The reaction was then terminated and the deacetylated product was measured according to the manufacturer's instructions. The activity is expressed in nmoles of deacetylated product formed per μg of MCF7 cell lysate protein per 30 min.
compound,measurement,setting,value
CC(=O)O [acetate],"Inhibition of ATB0,+-mediated glycine transport (in words)","rat ATB^0,+ [1]",did not inhibit glycine transport
same,"Inward currents induced in ATB0,+-expressing oocytes (in words)","rat ATB^0,+ [2]",did not induce detectable current
same,Fold increase of uptake (cRNA-injected over uninjected),human SLC5A8,1.8 fold
same,"Uptake, cRNA-injected oocytes",human SLC5A8; SLC5A8 cRNA-injected oocytes,0.059 ± 0.003
same,"Uptake, uninjected oocytes",human SLC5A8; uninjected control oocytes,0.032 ± 0.001
same,HDAC inhibition (in words),HDAC,least potent
